# Experimental data taken from publication PMC7315563, “Bioactive fluorenes. Part III: 2,7-dichloro-9H-fluorene-based thiazolidinone and azetidinone analogues as anticancer and antimicrobial against multidrug resistant strains agents” (BMC Chemistry, 2020).
# Legend:
# [1] = test system: Staphylococcus aureus (S. aureus), multidrug resistant clinical isolate; assay: agar well diffusion assay; type: cell-based; details: Staphylococcus aureus; S. aureus; 500 µg/mL of tested compound; 24 h
# How it was run: (§1)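 Multidrug-resistant clinical isolates swabbed on Mueller–Hinton agar at about 1–5 × 10^5 CFU/mL; 0.5 cm wells received 50 μL compound at 500 μg/mL in 1% DMSO. Incubation 24 h, 37 °C for bacteria and C. albicans, 25 °C for Aspergillus; inhibition zone diameter measured in mm.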
# [2] = test system: S. aureus; assay: MIC by broth microdilution method (resazurin end point); type: cell-based; details: Staphylococcus aureus; S. aureus; 24 h at 37 °C; read-out: MIC
# Protocol: (§2) Determination of Minimum inhibitory concentrations (MIC) of flourene derivatives was done using broth microdilution method. The procedure involved preparation of twofold dilutions of the fluorene derivatives ranging from (500–7.8 μg/mL) in sterile Mueller–Hinton broth inside the wells of 96-well microplate (Sarstedt, Germany). The inoculums of test strains prepared from fresh overnight cultures were adjusted to 0.5 McFarland standards, which equals to 1–2 × 10^8 CFU/mL for bacteria, the procedure was done according to CLSI 2012 [42]. […] For this assay the positive control agents were vancomycin (range: 0.7–50 μg/mL), gentamicin (range: 0.15–10 μg/mL) and the negative control was 1% DMSO.
# (§3) For proper determination of the MIC end point resazurin dye has been used. A stock solution of resazurin sodium salt powder (Titan Biotech) was prepared at 0.02% (wt/vol) in distilled water, sterilized by filtration through a […] filter into a sterile light protected container then stored protected from light at 4 °C for up to 1 week, or at − […] for long term use, then 10–15% resazurin solution of the total volume in wells was added to each well and incubation for 1–4 h at 37 °C was done. A change in color from blue to pink indicates the growth of bacteria, and MIC was defined as the lowest concentration of the drug that prevented this change in color.
# [3] = test system: A549 human lung cancer cells; assay: cell viability assay (MTT); type: cell-based; details: 24 h; for viability at 1 µg/mL: read-out: Validity (%) for sample concentrations (µg/mL) 1; for viability at 10 µg/mL: read-out: Validity (%) for sample concentrations (µg/mL) 10; for viability at 31.25 µg/mL: read-out: Validity (%) for sample concentrations (µg/mL) 31.25; for viability at 62.5 µg/mL: 62.50 µg/mL, read-out: Validity (%) for sample concentrations (µg/mL) 62.50; for viability at 125 µg/mL: read-out: Validity (%) for sample concentrations (µg/mL) 125; for viability at 250 µg/mL: read-out: Validity (%) for sample concentrations (µg/mL) 250; for viability at 500 µg/mL: read-out: Validity (%) for sample concentrations (µg/mL) 500; for viability at 1000 µg/mL: read-out: Validity (%) for sample concentrations (µg/mL) 1000
# [4] = test system: WI-38 human normal fibroblast cells; assay: cell viability assay (MTT); type: cell-based; details: 24 h; for viability at 31.25 µg/mL: read-out: Validity (%) for sample concentrations (µg/mL) 31.25; for viability at 62.5 µg/mL: 62.50 µg/mL, read-out: Validity (%) for sample concentrations (µg/mL) 62.50; for viability at 125 µg/mL: read-out: Validity (%) for sample concentrations (µg/mL) 125; for viability at 250 µg/mL: read-out: Validity (%) for sample concentrations (µg/mL) 250; for viability at 500 µg/mL: read-out: Validity (%) for sample concentrations (µg/mL) 500
# How it was run: (§4)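 Viability was read by MTT absorbance ([…]) after 24 h treatment with 0, 1, 10, 31.25, 62.5, 125, 250 or 500 µg/mL compound. Cultures were grown in RPMI-1640/10% FBS and plated at 5000 cells/well the day before dosing.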
# [5] = test system: MDA-MB-231 human breast cancer cells; assay: cell viability assay (MTT); type: cell-based; details: 24 h; for viability at 1 µg/mL: read-out: Validity (%) for sample concentrations (µg/mL) 1; for viability at 10 µg/mL: read-out: Validity (%) for sample concentrations (µg/mL) 10; for viability at 31.25 µg/mL: read-out: Validity (%) for sample concentrations (µg/mL) 31.25; for viability at 62.5 µg/mL: read-out: Validity (%) for sample concentrations (µg/mL) 62.5; for viability at 125 µg/mL: read-out: Validity (%) for sample concentrations (µg/mL) 125; for viability at 250 µg/mL: read-out: Validity (%) for sample concentrations (µg/mL) 250; for viability at 500 µg/mL: read-out: Validity (%) for sample concentrations (µg/mL) 500
# How it was run: as §4
# [6] = test system: Acinetobacter baumannii (A. baumannii), multidrug resistant clinical isolate; assay: agar well diffusion assay; type: cell-based; details: 500 µg/mL of tested compound, 24 h
# How it was run: as §1
# [7] = test system: Klebsiella pneumoniae (K. pneumoniae), multidrug resistant clinical isolate; assay: agar well diffusion assay; type: cell-based; details: 24 h, 500 µg/mL of tested compound
# How it was run: as §1
# [8] = test system: Pseudomonas aeruginosa (P. aeruginosa), multidrug resistant clinical isolate; assay: agar well diffusion assay; type: cell-based; details: 24 h, 500 µg/mL of tested compound
# How it was run: as §1
# [9] = test system: Escherichia coli (E. coli), multidrug resistant clinical isolate; assay: agar well diffusion assay; type: cell-based; details: 24 h, 500 µg/mL of tested compound
# How it was run: as §1
# [10] = test system: methicillin-resistant Staphylococcus aureus (MRSA); assay: agar well diffusion assay; type: cell-based; details: Staphylococcus aureus, 500 µg/mL of tested compound, 24 h
# How it was run: as §1
# [11] = test system: E. coli; assay: MIC by broth microdilution method (resazurin end point); type: cell-based; details: Escherichia coli, 24 h at 37 °C
# Protocol: as §2, §3
# [12] = test system: MRSA; assay: as above; type: cell-based; details: Staphylococcus aureus, 24 h at 37 °C, read-out: MIC
# Protocol: as §2, §3
# [13] = test system: P. aeruginosa; assay: as above; type: cell-based; details: Pseudomonas aeruginosa, 24 h at 37 °C
# Protocol: as §2, §3
SMILES,zone of inhibition at 500 µg/mL [1] [mm],melting point [°C],viability at 1 µg/mL [3] [%],viability at 10 µg/mL [3] [%],viability at 31.25 µg/mL [3] [%],viability at 62.5 µg/mL [3] [%],viability at 125 µg/mL [3] [%],viability at 250 µg/mL [3] [%],viability at 500 µg/mL [3] [%],viability at 1000 µg/mL [3] [%],IC50 [3] [µg/mL],viability at 31.25 µg/mL [4] [%],viability at 62.5 µg/mL [4] [%],viability at 125 µg/mL [4] [%],viability at 250 µg/mL [4] [%],viability at 500 µg/mL [4] [%],IC50 [4] [µg/mL],viability at 1 µg/mL [5] [%],viability at 10 µg/mL [5] [%],viability at 31.25 µg/mL [5] [%],further results
"CN(C)c1ccc(C2C(Cl)C(=O)N2c2nc(-c3cc(Cl)cc4c3-c3ccc(Cl)cc3C4)cs2)cc1 (stereo not shown) [6e, 3-Chloro-1-(4-(2,7-dichloro-9H-fluoren-4-yl)thiazol-2-yl)-4-(4-(dimethylamino)phenyl)-azetidin-2-one]",12,110 to 111,95.4,90.3,87.5,81.7,71.1,50.7,33.2,28.8,276,68.8,52.5,45.6,38.6,26.8,65.4,98.2,90.2,89.9,MIC [2]: 62.5 µg/mL; viability at 62.5 µg/mL [5]: 85.2%; viability at 125 µg/mL [5]: 69.2%; viability at 250 µg/mL [5]: 41.9%; viability at 500 µg/mL [5]: 39.4%; IC50 [5]: 215 µg/mL
"O=C1C(Cl)C(c2ccc([N+](=O)[O-])cc2)N1c1nc(-c2cc(Cl)cc3c2-c2ccc(Cl)cc2C3)cs1 (stereo not shown) [6f, 3-Chloro-1-(4-(2,7-dichloro-9H-fluoren-4-yl)thiazol-2-yl)-4-(4-nitrophenyl)azetidin-2-one]",10,114 to 116,91.3,89.8,86.2,83.2,67.3,46.6,38.6,25.4,230,49,44.8,35.6,32.3,30.4,29,91.8,89.6,83,zone of inhibition at 500 µg/mL [6]: 5 mm; viability at 62.5 µg/mL [5]: 72.4%; viability at 125 µg/mL [5]: 59.7%; viability at 250 µg/mL [5]: 37.2%; viability at 500 µg/mL [5]: 28.9%; IC50 [5]: 188 µg/mL
"COc1cc(C2C(Cl)C(=O)N2c2nc(-c3cc(Cl)cc4c3-c3ccc(Cl)cc3C4)cs2)ccc1O (stereo not shown) [6h, 3-chloro-1-(4-(2,7-dichloro-9H-fluoren-4-yl)thiazol-2-yl)-4-(4-hydroxy-3-methoxyphenyl)azetidin-2-one]",12,95 to 97,89.5,80.9,79,75.8,63.5,37.9,33,30.3,192,85,70.6,60.4,51.8,49.4,487,94.3,90.4,85.8,zone of inhibition at 500 µg/mL [7]: 3 mm; zone of inhibition at 500 µg/mL [8]: 8 mm; zone of inhibition at 500 µg/mL [9]: 22 mm; zone of inhibition at 500 µg/mL [10]: 15 mm; MIC [11]: 31.2 µg/mL; MIC [12]: 31.2 µg/mL; MIC [2]: 62.5 µg/mL; viability at 62.5 µg/mL [5]: 77.8%; viability at 125 µg/mL [5]: 73.6%; viability at 250 µg/mL [5]: 68.5%; viability at 500 µg/mL [5]: 65.8%; IC50 [5]: > 500 µg/mL
"O=C1C(Cl)C(c2ccco2)N1c1nc(-c2cc(Cl)cc3c2-c2ccc(Cl)cc2C3)cs1 (stereo not shown) [6j, 3-Chloro-1-(4-(2,7-dichloro-9H-fluoren-4-yl)thiazol-2-yl)-4-(furan-2-yl)azetidin-2-one]",9,95 to 98,95.6,87.8,76.6,68.2,54,31.3,29.2,28.3,175,87.3,81.4,66.3,60.9,37.2,356,96.3,92.9,75.6,zone of inhibition at 500 µg/mL [9]: 20 mm; zone of inhibition at 500 µg/mL [6]: 6 mm; MIC [11]: 31.2 µg/mL; viability at 62.5 µg/mL [5]: 73.1%; viability at 125 µg/mL [5]: 69%; viability at 250 µg/mL [5]: 53.2%; viability at 500 µg/mL [5]: 50.6%; IC50 [5]: 508 µg/mL
"O=C1C(Cl)C(c2ccc[nH]2)N1c1nc(-c2cc(Cl)cc3c2-c2ccc(Cl)cc2C3)cs1 (stereo not shown) [6l, 3-Chloro-1-(4-(2,7-dichloro-9H-fluoren-4-yl)thiazol-2-yl)-4-(1H-pyrrol-2-yl)azetidin-2-one]",15,105 to 107,85,72.2,58.1,53.6,43.1,34,30.3,27.9,95,94,76.4,70.2,52.5,39,350,96.9,90.4,85.5,zone of inhibition at 500 µg/mL [8]: 8 mm; zone of inhibition at 500 µg/mL [9]: 22 mm; zone of inhibition at 500 µg/mL [10]: 15 mm; MIC [11]: 31.2 µg/mL; MIC [12]: 31.2 µg/mL; MIC [13]: 125 µg/mL; MIC [2]: 31.2 µg/mL; viability at 62.5 µg/mL [5]: 71.9%; viability at 125 µg/mL [5]: 69.8%; viability at 250 µg/mL [5]: 66.7%; viability at 500 µg/mL [5]: 60.9%; IC50 [5]: > 500 µg/mL
"O=C1C(Cl)C(c2ccnc3ccccc23)N1c1nc(-c2cc(Cl)cc3c2-c2ccc(Cl)cc2C3)cs1 (stereo not shown) [6n, 3-chloro-1-(4-(2,7-dichloro-9H-fluoren-4-yl)thiazol-2-yl)-4-(quinolin-4-yl)azetidin-2-one]",9,175 to 177,93.3,83.6,67.9,64.2,52.7,43.2,39.1,36.3,159,98.6,85.9,53.2,43.3,39.8,212,96.2,89.5,86.8,zone of inhibition at 500 µg/mL [7]: 5 mm; zone of inhibition at 500 µg/mL [8]: 13 mm; zone of inhibition at 500 µg/mL [9]: 19 mm; zone of inhibition at 500 µg/mL [6]: 5 mm; MIC [11]: 31.2 µg/mL; MIC [13]: 62.5 µg/mL; viability at 62.5 µg/mL [5]: 81.3%; viability at 125 µg/mL [5]: 73.2%; viability at 250 µg/mL [5]: 67.1%; viability at 500 µg/mL [5]: 59.2%; IC50 [5]: > 500 µg/mL
